Source: ChEMBL document CHEMBL1201862, “PubChem BioAssay data set” (2004)
Active and inactive are the calls of the source.

How the values were obtained:
[1] = A cytotoxicity screen of small molecule inhibitors of the PhoP region in Salmonella typhi identified in the primary screen. [Related pubchem assays: 1850, 1864, 1985 ]; assay type: functional
[2] = molecular target: Peroxisome proliferator-activated receptor gamma/Nuclear receptor coactivator 1 (Homo sapiens, UniProt P37231); assay type: functional;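 note: agonist potency as compounds enhance coactivator SRC-1 recruitment to PPARgamma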
Peroxisome proliferator-activated receptor gamma/Nuclear receptor coactivator 1, sequence (P37231 whole entry): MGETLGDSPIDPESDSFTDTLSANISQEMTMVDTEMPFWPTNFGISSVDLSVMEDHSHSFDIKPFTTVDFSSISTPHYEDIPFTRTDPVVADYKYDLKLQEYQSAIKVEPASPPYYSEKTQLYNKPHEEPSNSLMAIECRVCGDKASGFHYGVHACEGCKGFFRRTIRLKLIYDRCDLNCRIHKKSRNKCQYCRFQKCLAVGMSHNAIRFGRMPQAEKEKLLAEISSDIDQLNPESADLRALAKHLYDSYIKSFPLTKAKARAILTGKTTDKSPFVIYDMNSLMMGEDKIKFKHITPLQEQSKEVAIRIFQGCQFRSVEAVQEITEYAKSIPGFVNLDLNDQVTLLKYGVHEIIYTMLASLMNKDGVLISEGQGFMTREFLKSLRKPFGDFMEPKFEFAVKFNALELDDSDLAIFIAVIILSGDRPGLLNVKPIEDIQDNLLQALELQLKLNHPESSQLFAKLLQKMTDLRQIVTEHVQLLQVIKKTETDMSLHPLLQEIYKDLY
Peroxisome proliferator-activated receptor gamma/Nuclear receptor coactivator 1, sequence (Q15788 whole entry, further chain): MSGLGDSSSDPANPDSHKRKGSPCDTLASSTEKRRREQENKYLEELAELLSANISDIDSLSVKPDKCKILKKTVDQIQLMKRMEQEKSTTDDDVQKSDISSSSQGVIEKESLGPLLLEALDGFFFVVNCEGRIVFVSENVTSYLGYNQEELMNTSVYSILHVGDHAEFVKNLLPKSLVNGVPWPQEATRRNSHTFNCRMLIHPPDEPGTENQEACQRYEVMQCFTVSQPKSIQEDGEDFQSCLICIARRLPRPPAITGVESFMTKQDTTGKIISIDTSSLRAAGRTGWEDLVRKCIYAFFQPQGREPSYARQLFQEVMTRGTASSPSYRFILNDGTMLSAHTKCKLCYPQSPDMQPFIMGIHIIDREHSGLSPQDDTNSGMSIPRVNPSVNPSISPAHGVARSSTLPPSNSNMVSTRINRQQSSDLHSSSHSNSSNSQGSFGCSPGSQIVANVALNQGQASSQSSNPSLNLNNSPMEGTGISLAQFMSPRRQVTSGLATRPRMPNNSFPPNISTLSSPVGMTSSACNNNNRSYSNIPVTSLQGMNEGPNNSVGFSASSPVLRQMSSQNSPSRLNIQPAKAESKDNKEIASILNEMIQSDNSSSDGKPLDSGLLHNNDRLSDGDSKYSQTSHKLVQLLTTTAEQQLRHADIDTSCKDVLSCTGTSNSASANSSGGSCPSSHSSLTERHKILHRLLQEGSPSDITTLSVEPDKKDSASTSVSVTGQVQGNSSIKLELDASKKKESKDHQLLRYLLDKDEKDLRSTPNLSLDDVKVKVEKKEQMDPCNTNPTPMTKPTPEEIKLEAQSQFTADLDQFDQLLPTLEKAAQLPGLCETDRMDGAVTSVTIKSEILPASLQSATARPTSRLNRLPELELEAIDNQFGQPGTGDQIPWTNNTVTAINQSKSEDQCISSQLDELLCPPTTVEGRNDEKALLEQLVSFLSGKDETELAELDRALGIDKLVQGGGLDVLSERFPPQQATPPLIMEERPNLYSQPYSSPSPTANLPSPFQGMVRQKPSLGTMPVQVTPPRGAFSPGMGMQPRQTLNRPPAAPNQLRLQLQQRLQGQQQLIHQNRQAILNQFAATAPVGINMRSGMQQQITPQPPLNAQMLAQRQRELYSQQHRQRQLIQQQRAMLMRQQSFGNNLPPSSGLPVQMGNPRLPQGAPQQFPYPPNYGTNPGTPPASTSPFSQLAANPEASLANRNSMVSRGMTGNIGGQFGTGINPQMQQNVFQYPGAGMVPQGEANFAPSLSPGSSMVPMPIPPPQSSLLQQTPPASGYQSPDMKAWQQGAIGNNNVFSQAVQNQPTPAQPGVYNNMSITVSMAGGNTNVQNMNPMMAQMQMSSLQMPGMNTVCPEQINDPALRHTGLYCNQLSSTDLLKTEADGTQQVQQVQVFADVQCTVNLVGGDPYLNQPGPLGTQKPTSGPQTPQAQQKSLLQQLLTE

[3] = molecular target: Peroxisome proliferator-activated receptor gamma/Nuclear receptor coactivator 3 (Homo sapiens, UniProt P37231); assay type: functional;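 note: agonist potency for raising coactivator recruitment to the receptor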
[4] = molecular target: Peroxisome proliferator-activated receptor gamma/Nuclear receptor coactivator 2 (Homo sapiens, UniProt P37231); assay type: functional;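 note: agonist potency for raising coactivator recruitment to the receptor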
Peroxisome proliferator-activated receptor gamma/Nuclear receptor coactivator 2, sequence (P37231 whole entry): as the sequence (P37231 whole entry) above
Peroxisome proliferator-activated receptor gamma/Nuclear receptor coactivator 2, sequence (Q15596 whole entry, further chain): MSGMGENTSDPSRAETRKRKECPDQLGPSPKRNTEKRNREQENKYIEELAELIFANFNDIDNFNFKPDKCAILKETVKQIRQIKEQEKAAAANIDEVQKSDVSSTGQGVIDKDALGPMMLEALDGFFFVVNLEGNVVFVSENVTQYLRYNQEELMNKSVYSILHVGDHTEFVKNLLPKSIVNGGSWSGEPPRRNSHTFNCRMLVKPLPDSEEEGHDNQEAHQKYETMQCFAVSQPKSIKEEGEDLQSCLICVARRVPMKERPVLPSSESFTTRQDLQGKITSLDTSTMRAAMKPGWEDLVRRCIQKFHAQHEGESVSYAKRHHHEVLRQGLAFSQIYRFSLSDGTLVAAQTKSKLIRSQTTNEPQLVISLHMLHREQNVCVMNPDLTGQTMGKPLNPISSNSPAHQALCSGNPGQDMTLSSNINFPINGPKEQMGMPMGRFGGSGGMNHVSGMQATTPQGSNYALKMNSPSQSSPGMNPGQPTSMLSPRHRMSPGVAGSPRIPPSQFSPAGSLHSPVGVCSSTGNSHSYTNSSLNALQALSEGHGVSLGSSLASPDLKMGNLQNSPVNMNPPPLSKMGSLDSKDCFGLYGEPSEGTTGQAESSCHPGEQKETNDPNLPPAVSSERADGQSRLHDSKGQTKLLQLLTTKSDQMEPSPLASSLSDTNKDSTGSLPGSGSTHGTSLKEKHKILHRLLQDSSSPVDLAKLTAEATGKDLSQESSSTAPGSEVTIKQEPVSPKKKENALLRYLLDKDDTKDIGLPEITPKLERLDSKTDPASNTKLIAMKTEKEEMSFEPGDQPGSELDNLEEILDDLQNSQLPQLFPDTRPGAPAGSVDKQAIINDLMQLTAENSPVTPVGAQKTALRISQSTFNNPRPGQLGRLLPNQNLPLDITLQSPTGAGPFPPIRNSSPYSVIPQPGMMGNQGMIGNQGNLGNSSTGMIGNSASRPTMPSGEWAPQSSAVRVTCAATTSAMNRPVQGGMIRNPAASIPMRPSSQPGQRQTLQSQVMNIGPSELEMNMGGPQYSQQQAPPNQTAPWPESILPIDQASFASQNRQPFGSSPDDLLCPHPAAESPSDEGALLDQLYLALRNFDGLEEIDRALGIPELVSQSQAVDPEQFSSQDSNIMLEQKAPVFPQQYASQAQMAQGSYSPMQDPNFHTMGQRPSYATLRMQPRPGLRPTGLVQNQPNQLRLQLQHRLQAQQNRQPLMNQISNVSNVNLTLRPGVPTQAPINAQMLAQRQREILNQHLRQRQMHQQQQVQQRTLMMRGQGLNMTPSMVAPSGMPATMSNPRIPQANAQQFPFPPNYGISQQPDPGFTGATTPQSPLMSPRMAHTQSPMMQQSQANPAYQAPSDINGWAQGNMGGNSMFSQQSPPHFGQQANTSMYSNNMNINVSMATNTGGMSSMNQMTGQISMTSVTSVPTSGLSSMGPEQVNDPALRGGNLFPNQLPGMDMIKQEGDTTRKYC

[5] = Shn3 3'UTR reporter inhibitors, dose response, cell-based, Clone20 osteoblasts, firefly luciferase, cherry-picked (AID 624132); assay type: functional;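 note: firefly luciferase luminescence from reporter carrying the Shn3 3'UTR in osteoblasts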
[6] = HepG2 cell cytotoxicity, dose response, cytotoxicity control for Shn3 inhibitor project, CellTiter-Glo, cherry-picked (AID 624134); assay type: functional, cell-based
[7] = control 3'UTR Renilla luciferase suppression, dose response, counter-screen for Shn3 inhibitor project, cell-based, Clone20-Shn3RL, cherry-picked (AID 624133); assay type: functional
Cytochrome P450 1A2 = molecular target: T1, Cytochrome P450 1A2 (Homo sapiens, UniProt P05177);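 note: PubChem cytochrome P450 panel assay, CYP1A2 panel member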
T1 sequence (P05177 whole entry): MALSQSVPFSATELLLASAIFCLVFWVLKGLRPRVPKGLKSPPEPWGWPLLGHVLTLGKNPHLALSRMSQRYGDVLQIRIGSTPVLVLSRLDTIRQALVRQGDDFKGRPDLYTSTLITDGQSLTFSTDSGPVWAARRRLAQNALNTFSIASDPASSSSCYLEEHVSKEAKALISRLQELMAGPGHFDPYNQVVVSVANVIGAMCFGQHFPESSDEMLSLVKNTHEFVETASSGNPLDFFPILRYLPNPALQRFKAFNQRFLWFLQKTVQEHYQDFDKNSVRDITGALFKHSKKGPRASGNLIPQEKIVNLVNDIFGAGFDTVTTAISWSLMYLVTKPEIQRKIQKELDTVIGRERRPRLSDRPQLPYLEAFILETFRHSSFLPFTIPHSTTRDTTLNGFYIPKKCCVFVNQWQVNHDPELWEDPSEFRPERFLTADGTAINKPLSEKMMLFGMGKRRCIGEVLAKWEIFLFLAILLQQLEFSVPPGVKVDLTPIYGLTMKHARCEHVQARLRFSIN

Cytochrome P450 3A4 = Cytochrome P450 3A4 (Homo sapiens, UniProt P08684);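 note: CYP3A4 tested as one member of a cytochrome P450 panel screen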
Cytochrome P450 2C19 = Cytochrome P450 2C19 (Homo sapiens, UniProt P33261); assay: Cytochrome panel assay with activity outcomes. Panel member name: p450-cyp2c19 Compounds with AC50 equal or less than 10 uM are considered active; assay type: functional; settings: read-out: AC50
[8] = molecular target: T2, Polyadenylate-binding protein 1 (Homo sapiens, UniProt P11940); assay: PABP1 MLLE–PAM2 interaction inhibitors, dose response, miRNA deadenylation inhibitor project, biochemical, fluorescence polarization, Cy5-PAM2 peptide, secondary (AID 602260); assay type: functional; settings: read-out: IC50_Mean
T2 sequence (P11940 whole entry): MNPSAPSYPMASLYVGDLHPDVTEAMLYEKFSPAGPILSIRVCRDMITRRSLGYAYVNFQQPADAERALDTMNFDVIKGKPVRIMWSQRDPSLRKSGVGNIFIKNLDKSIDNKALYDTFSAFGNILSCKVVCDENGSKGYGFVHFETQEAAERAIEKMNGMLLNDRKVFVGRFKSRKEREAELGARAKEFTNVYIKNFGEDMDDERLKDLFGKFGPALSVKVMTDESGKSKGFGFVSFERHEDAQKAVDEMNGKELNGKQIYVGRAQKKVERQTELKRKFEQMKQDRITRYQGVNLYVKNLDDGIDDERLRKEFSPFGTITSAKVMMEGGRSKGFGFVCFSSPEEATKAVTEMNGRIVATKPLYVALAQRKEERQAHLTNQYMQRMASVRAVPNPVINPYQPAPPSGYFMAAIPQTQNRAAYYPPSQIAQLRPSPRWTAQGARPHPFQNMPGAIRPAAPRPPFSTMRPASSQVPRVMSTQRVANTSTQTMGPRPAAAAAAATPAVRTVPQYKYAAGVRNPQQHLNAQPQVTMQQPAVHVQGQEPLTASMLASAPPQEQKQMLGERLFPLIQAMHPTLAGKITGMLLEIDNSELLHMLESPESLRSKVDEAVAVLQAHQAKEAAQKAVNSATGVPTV

[9] = molecular target: T2, Polyadenylate-binding protein 1; assay: PABP1 MLLE–PAM2 binding inhibitor potency, dose response, biochemical, fluorescence polarization, FITC-PAM2 peptide (AID 602259); assay type: functional; settings: read-out: IC50_Mean
[10] = molecular target: T3, Heat shock factor protein 1 (Mus musculus, UniProt P38532); assay: inhibition of MG132-induced HSE-luciferase signal, confirmation, cell-based, NIH3T3, luminescence, dose retest (AID 2382); assay type: functional;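 note: NIH3T3 fibroblasts with HSF1-driven luciferase reporter stressed by proteasome inhibitor MG132; luminescence from HSF1-driven luciferase expression after 8 hours of MG132 stress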
T3 sequence (P38532 whole entry): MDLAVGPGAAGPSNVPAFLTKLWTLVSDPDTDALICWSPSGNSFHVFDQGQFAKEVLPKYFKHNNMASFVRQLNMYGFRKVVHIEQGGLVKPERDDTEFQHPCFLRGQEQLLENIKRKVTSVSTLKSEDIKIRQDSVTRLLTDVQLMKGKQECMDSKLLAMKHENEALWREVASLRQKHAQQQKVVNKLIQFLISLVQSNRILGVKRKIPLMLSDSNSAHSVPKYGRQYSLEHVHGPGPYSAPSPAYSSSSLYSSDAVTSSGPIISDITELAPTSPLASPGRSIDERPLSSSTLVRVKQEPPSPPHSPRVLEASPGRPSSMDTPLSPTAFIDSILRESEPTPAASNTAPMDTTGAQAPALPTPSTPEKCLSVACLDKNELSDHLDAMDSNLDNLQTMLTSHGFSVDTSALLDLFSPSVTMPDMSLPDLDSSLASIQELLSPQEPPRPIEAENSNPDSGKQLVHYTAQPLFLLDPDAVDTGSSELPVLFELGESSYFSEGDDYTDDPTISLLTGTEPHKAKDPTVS

[11] = molecular target: T4, Zinc finger protein mex-5 (Caenorhabditis elegans, UniProt Q9XUB2); assay: MEX-5/TCR-2 RNA interaction inhibitors, dose response, biochemical, C. elegans, fluorescence polarization (AID 1960)
T4 sequence (Q9XUB2 whole entry): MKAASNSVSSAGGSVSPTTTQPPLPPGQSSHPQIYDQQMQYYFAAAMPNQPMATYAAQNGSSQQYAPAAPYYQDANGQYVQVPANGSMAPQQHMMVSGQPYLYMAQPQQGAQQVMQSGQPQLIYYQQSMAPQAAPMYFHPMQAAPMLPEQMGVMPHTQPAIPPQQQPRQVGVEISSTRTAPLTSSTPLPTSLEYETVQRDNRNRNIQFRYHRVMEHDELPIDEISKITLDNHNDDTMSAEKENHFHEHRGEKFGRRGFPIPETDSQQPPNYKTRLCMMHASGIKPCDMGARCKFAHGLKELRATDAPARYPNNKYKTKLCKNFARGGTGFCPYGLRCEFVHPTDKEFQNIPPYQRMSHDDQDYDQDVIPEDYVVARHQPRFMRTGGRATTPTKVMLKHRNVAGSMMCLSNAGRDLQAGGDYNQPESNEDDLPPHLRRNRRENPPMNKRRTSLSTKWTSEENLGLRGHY

[12] = molecular target: T5, RNA-binding protein pos-1 (Caenorhabditis elegans, UniProt G5EF15); assay: inhibitors of POS-1/mex-3 RNA binding, dose response, biochemical, fluorescence polarization (AID 1964);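 note: purified POS-1 fused to maltose binding protein made in E. coli; potency of compounds blocking POS-1 binding to fluorescent RNA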
T5 sequence (G5EF15 whole entry): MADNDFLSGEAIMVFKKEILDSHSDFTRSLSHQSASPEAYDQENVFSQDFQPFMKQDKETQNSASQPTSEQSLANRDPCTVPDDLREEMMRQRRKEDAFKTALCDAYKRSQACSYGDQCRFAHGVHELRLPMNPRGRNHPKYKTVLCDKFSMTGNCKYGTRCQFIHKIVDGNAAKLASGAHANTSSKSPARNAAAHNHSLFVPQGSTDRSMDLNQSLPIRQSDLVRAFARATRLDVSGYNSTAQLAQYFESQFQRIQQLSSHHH

[13] = molecular target: T6, Endoribonuclease toxin MazF (Escherichia coli K-12, UniProt P0AE70); assay: MazF toxin RNase activators, dose response, biochemical, fluorescence, single-stranded RNA substrate, uHTS hits (AID 588481); assay type: functional
T6 sequence (P0AE70 whole entry): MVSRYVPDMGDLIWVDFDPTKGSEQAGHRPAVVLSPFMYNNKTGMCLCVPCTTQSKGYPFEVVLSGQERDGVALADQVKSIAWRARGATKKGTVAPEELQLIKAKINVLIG

[14] = molecular target: T6, Endoribonuclease toxin MazF; assay: fluorescent RNA oligo signal without MazF, dose response, counter-screen for MazEF activator project, biochemical, fluorescence, single-stranded RNase substrate (AID 588502); assay type: functional
[15] = microbe, parasite or virus in culture; assay type: functional; settings: Mycobacterium tuberculosis
INS1 = assay: beta cell apoptosis inhibitors, cytokine rescue, dose response, luminescence, retest (AID 449756); assay type: functional, cell-based; settings: Rattus norvegicus;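 note: cell death triggered by IL-1 beta plus TNF-alpha plus IFN-gamma mixture; protective hits raise ATP signal compared with cytokine alone wells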
[16] = growth suppression of PTEN-null colon cells, dose response, cell-based, HCT116 PTEN knockout (AID 1047); assay type: functional;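 note: HCT116 colon tumor cells with PTEN knocked out; cells exposed to compound for 60 hours before readout; potency for loss of cell viability measured by luminescence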
[17] = growth suppression of beta-catenin-knockout colon cells, dose response, cell-based, HCT116, human colon tumor (AID 1045); assay type: functional;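 note: HCT116 colon tumor cells with beta catenin knocked out; cells exposed to compound for 60 hours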
[18] = Luminescence Cell-Based Dose Retest to Confirm Inhibitors of Cancer Stem Cells. [Related pubchem assays (depositor defined):AID2717, AID2721]; assay type: functional; settings: Homo sapiens
[19] = molecular target: Induced myeloid leukemia cell differentiation protein Mcl-1 (Homo sapiens, UniProt Q07820); assay type: functional
[20] = molecular target: Eukaryotic translation initiation factor 4E (Mus musculus, UniProt P63073); assay: eIF4E–eIF4G protein interaction inhibitors, dose response, biochemical, TR-FRET (AID 855); assay type: functional;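 note: potency for disrupting eIF4E binding to eIF4GI seen as loss of FRET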
Eukaryotic translation initiation factor 4E, sequence (P63073 whole entry): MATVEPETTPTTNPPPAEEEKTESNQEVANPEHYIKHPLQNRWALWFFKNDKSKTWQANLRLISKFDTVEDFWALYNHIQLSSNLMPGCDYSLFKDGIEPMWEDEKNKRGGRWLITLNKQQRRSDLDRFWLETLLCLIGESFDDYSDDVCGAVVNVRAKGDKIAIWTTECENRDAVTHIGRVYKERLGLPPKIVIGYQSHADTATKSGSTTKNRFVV

Cc1[nH]c2ccc(C(=O)Nc3ccncc3)cc2c1C
EC50 [1]: > 50 µM (active)

Cn1c(=O)c2c(ncn2CCNC2=NCCCCC2)n(C)c1=O
EC50 [2]: > 79.4 µM (not active)
EC50 [3]: > 79.4 µM (not active)
EC50 [4]: > 79.4 µM (not active)

Cc1cccc(NC(=O)Cn2cc(C(=O)C3CC3)c3ccccc32)c1C
AC50 [5]: 2.39 µM (active)
AC50 [6]: 66 µM (active)
AC50 [7]: 3.05 µM (active)

O=C(COc1ccc2ccccc2c1)NNC(=O)Cc1ccccc1
EC50 [2]: 6.07 µM (active)
EC50 [3]: 6.57 µM (active)
EC50 [4]: 5.17 µM (active)

Cc1ccc(CSc2nc3c(cc2C#N)CCC3)cc1
EC50 [2]: 42.7 µM (not active)
EC50 [3]: 47.6 µM (not active)
EC50 [4]: 28.5 µM (not active)

CC(C)C(=O)N1C2CCC1CC(O)(c1ccc(F)cc1)C2 (stereo not given)
AC50 (Cytochrome P450 1A2): 17.8 µM (inconclusive)
AC50 (Cytochrome P450 3A4): 22.4 µM (inconclusive)
EC50 [2]: > 79.4 µM (not active)
AC50 (Cytochrome P450 2C19): 20 µM (inconclusive)
EC50 [3]: > 79.4 µM (not active)
EC50 [4]: > 79.4 µM (not active)

O=C1c2ccccc2NC(c2cccc([N+](=O)[O-])c2)N1CCc1ccccc1 (stereo not given)
EC50 [1]: > 50 µM (active)

O=C(Nc1ccc(F)cc1)C1CCC(CNc2c(N3CCCCC3)c(=O)c2=O)CC1 (stereo not given)
EC50 [1]: > 50 µM (active)

COC(=O)c1cc(NC(S)=Nc2cc(Cl)cc(Cl)c2)cc(C(=O)OC)c1
IC50 [8]: > 66 µM (inactive)
IC50 [9]: > 66 µM (inactive)

Cc1cc(NC(=O)c2ccc3[nH]c(C)c(C)c3c2)ccn1
EC50 [1]: > 50 µM (active)

Cc1nc2scc(C)n2c(=O)c1S(=O)(=O)N1CCN(c2cccc(C(F)(F)F)c2)CC1
EC50 [1]: > 50 µM (active)
EC50 [10]: > 195 µM (not active)

CCc1nc2ccc(C(=O)Nc3nnc(C)s3)cc2nc1CC
EC50 [2]: > 79.4 µM (not active)
EC50 [3]: > 79.4 µM (not active)
EC50 [4]: > 79.4 µM (not active)

O=C(Nc1ccc(S(=O)(=O)N2CCCC2)cc1)c1cccnc1
EC50 [1]: > 50 µM (active)

N#CC(C(=O)NCc1ccccc1)c1nc2ccccc2nc1N1CCCC1 (stereo not given)
EC50 [11]: > 300 µM (inconclusive)
EC50 [12]: > 300 µM (inconclusive)
EC50 [13]: 4.64 µM (active)
EC50 [14]: > 99 µM (inactive)

CCCN(CC(=O)Nc1ccccc1C)C(=O)COC(=O)CSc1ccc([N+](=O)[O-])cc1
IC50 [8]: > 66 µM (inactive)
IC50 [9]: > 66 µM (inactive)

Cn1cccc1-c1nc2cc(NC(=O)c3ccccc3)ccc2[nH]1
EC50 [2]: > 79.4 µM (not active)
EC50 [3]: > 79.4 µM (not active)
EC50 [4]: > 79.4 µM (not active)

CCCCCc1nc2c(c(=O)c3ccccc3n2C)c(=O)n1C1CCCCCC1
CC50 [15]: 10.4 µM (active)
AC50 (INS1): 7.76 µM (active)
AC50 [5]: 8.21 µM (active)
AC50 [6]: 42.3 µM (active)
EC50 [16]: 7.59 µM (active)
EC50 [17]: 6.38 µM (active)
AC50 [18]: 3.56 µM (active)
AC50 [7]: 5.56 µM (active)

O=C(CN1C(=O)/C(=C2\SC(=S)N(C3CCS(=O)(=O)C3)C2=O)c2ccccc21)Nc1ccc(F)cc1 (stereo not given)
IC50 [19]: 3.55 µM (active)

Cc1ccc(C23CC4CC(CC(CN)(C4)C2)C3)cc1
IC50 [20]: 50 µM (inactive)

c1cncc(CNC2CCCC2)c1
EC50 [2]: > 79.4 µM (not active)
EC50 [3]: > 79.4 µM (not active)
EC50 [4]: > 79.4 µM (not active)

C=CCN1C(=O)/C(=C2/Sc3ccccc3N2CC)SC1=S
EC50 [11]: 9.69 µM (active)
EC50 [12]: 16.1 µM (active)
EC50 [13]: > 99 µM (inactive)
EC50 [14]: 56.1 µM (inactive)

CCCCOC(=O)Nc1nnc(SCCOc2ccc(C)cc2)s1
IC50 [20]: > 64 µM (inactive)

Cc1ccc(NC(=O)c2ccccc2)s1
EC50 [1]: > 50 µM (active)

Cc1cc(C(F)F)n2nc(C(=O)Nc3sc4c(c3C(N)=O)CCC4)nc2n1
IC50 [19]: 40 µM (active)

CC12CC3(C)CC(C)(C1)CC(C(=O)NC(=S)N1CCCC1)(C2)C3
IC50 [20]: 50 µM (inactive)
